Experimental data reported in patent US11492385B2, “Long-acting co-agonists of the glucagon and GLP-1 receptors” (Merck Sharp & Dohme Corp., priority 2015, dated 2022).
“Also recorded” adds a separate entry of the source. Values belong to the compound of their own block, whether it stands above or below them. Starred links: 1 amine or outer side, 2 acyl side, 3 side chain; linkers in the order of their positions; H or OH if unused. Non-standard residues stand in square brackets, D forms with d. Residues, ends and D or L forms follow the SMILES beside them. Groups on a side chain read outwards from the residue. No end group written: not given here. *: point of attachment. Phe(4-CH2NH2) = NCc1ccc(C[C@H](N)C(=O)O)cc1; C18 diacid = O=C(O)CCCCCCCCCCCCCCCCC(=O)*; C16 diacid = O=C(O)CCCCCCCCCCCCCCC(=O)*; γGlu = O=C(O)[C@H](CCC(=O)[*:2])N[*:1]; Met(O2) = CS(=O)(=O)CC[C@H](N)C(=O)O; αMeD = C[C@](N)(CC(=O)O)C(=O)O; AEEA = NCCOCCOCC(=O)O; Aib = CC(C)(N)C(=O)O

Key:
human GCGR = biological target: T1, human GCGR (Homo sapiens, UniProt P47871); assay: cAMP activity assay, cells expressing human GCGR; assay type: cell-based
T1 construct: expressed in transfected cells; kept under Blasticidin and Hygromycin selection
T1 sequence (P47871 26-477): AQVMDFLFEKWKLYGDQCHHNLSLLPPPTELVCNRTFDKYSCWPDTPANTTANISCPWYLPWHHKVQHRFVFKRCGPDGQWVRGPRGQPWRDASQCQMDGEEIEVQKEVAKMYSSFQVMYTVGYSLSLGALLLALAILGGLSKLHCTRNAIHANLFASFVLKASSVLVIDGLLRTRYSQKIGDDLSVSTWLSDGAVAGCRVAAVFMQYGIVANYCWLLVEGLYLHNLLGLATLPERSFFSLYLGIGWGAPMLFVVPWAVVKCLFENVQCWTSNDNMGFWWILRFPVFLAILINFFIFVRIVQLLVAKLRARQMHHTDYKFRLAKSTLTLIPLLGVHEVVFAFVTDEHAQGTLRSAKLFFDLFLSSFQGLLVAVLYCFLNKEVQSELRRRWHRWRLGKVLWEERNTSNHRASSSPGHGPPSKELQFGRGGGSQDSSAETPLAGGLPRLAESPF
Outline: (§1)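 cAMP production in human GLP1R- or GCGR-expressing cells was read by luminescence after overnight dark incubation at room temperature. Peptides were given as 10-point DMSO dilution series, with native GLP-1 and glucagon as references. Four-parameter logistic fitting gave EC50.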

human GLP1R = biological target: T2, human GLP1R (Homo sapiens, UniProt P43220); assay: cAMP activity assay, cells expressing human GLP1R; assay type: cell-based; conditions: cAMP production, assay buffer with or without 20% human serum (not stated which)
T2 construct: expressed in transfected cells; kept under Blasticidin and Hygromycin selection
T2 sequence (P43220 24-463): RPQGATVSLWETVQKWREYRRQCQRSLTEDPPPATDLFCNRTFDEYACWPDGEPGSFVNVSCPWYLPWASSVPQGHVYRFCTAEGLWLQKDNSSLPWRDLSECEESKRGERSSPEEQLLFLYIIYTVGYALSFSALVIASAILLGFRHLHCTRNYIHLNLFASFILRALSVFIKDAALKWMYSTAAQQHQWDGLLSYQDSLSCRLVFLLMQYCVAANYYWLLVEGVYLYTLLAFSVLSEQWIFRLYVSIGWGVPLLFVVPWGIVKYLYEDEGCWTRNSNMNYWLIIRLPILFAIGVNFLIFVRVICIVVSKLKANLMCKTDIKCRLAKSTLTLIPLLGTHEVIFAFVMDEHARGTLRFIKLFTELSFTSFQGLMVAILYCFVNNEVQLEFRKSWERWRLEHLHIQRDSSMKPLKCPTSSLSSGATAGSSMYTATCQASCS
Outline: as §1

[1] = Duration of action in DIO mice: body weight after a single sc dose; assay type: in vivo; conditions: for change in body weight over four days: single sc dose at day zero, compared to liraglutide and semaglutide (FIG. 1A)
Procedure: (§2) In this example, the duration of action of several of the peptides or co-agonist peptides was evaluated in diet-induced obese (DIO) mice. The duration of action of the peptides were compared to the duration of action of Semaglutide (sema) and Liraglutide (lira). The peptides tested were SEQ ID NOs: 2, 19, 28, 29, and 33 (Seq 2, Seq 19, Seq 28, Seq 29, and Seq 33, respectively).

[2] = Duration of action in DIO mice: food intake after a single sc dose; assay type: in vivo; conditions: for change in food intake over four days: single sc dose at day zero, compared to liraglutide and semaglutide (FIG. 1B)
Procedure: as §2

[3] = Duration of action in DIO mice: blood glucose after a single sc dose; assay type: in vivo; conditions: single sc dose at day zero, compared to liraglutide and semaglutide (FIG. 1C)
Procedure: as §2

[4] = mouse, in vivo, sc
Procedure: DIO mice were divided into groups of eight mice per group and the initial average body weight, food intake and basal glucose of each group were matched. Each group of mice was subcutaneously (sc) injected with a single dose of peptide or vehicle control. The administered doses varied between 3 and 300 nmol/kg. […] A separate set of mice were treated with same dose of each peptide. Serial blood was taken at 5 hours, 24 hours, 48 hours and 72 hours post sc injection to measure drug exposure.

EC50 (human GCGR; cAMP production, cells expressing human GCGR, assay buffer with or without 20% human serum (not stated which), read-out: GCGR EC50 human): 0.69 nM | hGCGR/hGLP1R (hTone) (human GCGR; ratio of human GCGR EC50 to human GLP1R EC50): 0.8 | EC50 (human GLP1R): 0.84 nM
Compound: CC(C)C[C@H](NC(=O)[C@H](CC(C)C)NC(=O)[C@H](CCCCN)NC(=O)[C@H](CO)NC(=O)[C@H](Cc1ccc(O)cc1)NC(=O)[C@H](CC(=O)O)NC(=O)[C@H](CO)NC(=O)[C@@H](NC(=O)[C@H](Cc1ccccc1)NC(=O)[C@@H](NC(=O)CNC(=O)[C@H](CCC(N)=O)NC(=O)C(C)(C)NC(=O)[C@@H](N)Cc1c[nH]cn1)[C@@H](C)O)[C@@H](C)O)C(=O)N[C@@H](CC(=O)O)C(=O)N[C@@H](C)C(=O)N[C@@H](CCCNC(=N)N)C(=O)N[C@@H](C)C(=O)N[C@@H](C)C(=O)N[C@@H](CCCCNC(=O)COCCOCCNC(=O)COCCOCCNC(=O)CC[C@H](NC(=O)CCCCCCCCCCCCCCCCC(=O)O)C(=O)O)C(=O)N[C@@H](CC(=O)O)C(=O)N[C@@H](Cc1ccccc1)C(=O)N[C@H](C(=O)N[C@@H](CCC(N)=O)C(=O)N[C@@H](Cc1c[nH]c2ccccc12)C(=O)N[C@@H](CC(C)C)C(=O)N[C@@H](CCS(C)(=O)=O)C(=O)N[C@@](C)(CC(=O)O)C(=O)N[C@H](C(N)=O)[C@@H](C)O)C(C)C [compound 79] (H-H[Aib]QGTFTSDYSKLLDARAAK([AEEA-AEEA-γGlu-C18 diacid])DFVQWL[Met(O2)][αMeD]T-NH2)

Compound: HXQGTFTSDYSKYLDARAAK( ? -γE-C16—OH)DFVQWL2DT—NH2 (H[Aib]QGTFTSDYSKYLDARAAK([AEEA-AEEA-γGlu-C16 diacid])DFVQWL[Met(O2)]DT-NH2; N-terminus assumed; SMILES CC(C)C[C@H](NC(=O)[C@H](Cc1ccc(O)cc1)NC(=O)[C@H](CCCCN)NC(=O)[C@H](CO)NC(=O)[C@H](Cc1ccc(O)cc1)NC(=O)[C@H](CC(=O)O)NC(=O)[C@H](CO)NC(=O)[C@@H](NC(=O)[C@H](Cc1ccccc1)NC(=O)[C@@H](NC(=O)CNC(=O)[C@H](CCC(N)=O)NC(=O)C(C)(C)NC(=O)[C@@H](N)Cc1c[nH]cn1)[C@@H](C)O)[C@@H](C)O)C(=O)N[C@@H](CC(=O)O)C(=O)N[C@@H](C)C(=O)N[C@@H](CCCNC(=N)N)C(=O)N[C@@H](C)C(=O)N[C@@H](C)C(=O)N[C@@H](CCCCNC(=O)COCCOCCNC(=O)COCCOCCNC(=O)CC[C@H](NC(=O)CCCCCCCCCCCCCCC(=O)O)C(=O)O)C(=O)N[C@@H](CC(=O)O)C(=O)N[C@@H](Cc1ccccc1)C(=O)N[C@H](C(=O)N[C@@H](CCC(N)=O)C(=O)N[C@@H](Cc1c[nH]c2ccccc12)C(=O)N[C@@H](CC(C)C)C(=O)N[C@@H](CCS(C)(=O)=O)C(=O)N[C@@H](CC(=O)O)C(=O)N[C@H](C(N)=O)[C@@H](C)O)C(C)C) [SEQ ID NO: 19]
change in body weight over eight days ([1]; single dose at 20 nmol/kg or 60 nmol/kg at day zero, compared to liraglutide and semaglutide (FIG. 3A)): more pronounced and sustained change in body weight | change in body weight over four days [1]: more pronounced and sustained change in body weight | change in food intake over eight days ([2]; single dose at 20 nmol/kg or 60 nmol/kg at day zero, compared to liraglutide and semaglutide (FIG. 3B)): comparable to liraglutide or semiglutide in reducing food intake | change in food intake over four days [2]: more sustained reduction in food intake | blood glucose lowering effect over four days [3]: greater reduction in blood glucose | PK over three days [4]: more prolonged PK

Compound: HXQGTFTSDYSKYLDARAAK( ? -γE-C18—OH)DFVQWL2DT—NH2 (H[Aib]QGTFTSDYSKYLDARAAK([AEEA-AEEA-γGlu-C18‑OH])DFVQWL[Met(O2)]DT-NH2) [SEQ ID NO: 29]
change in body weight over four days ([1]; listed as Seq 29): more pronounced and sustained change in body weight; also recorded: particularly pronounced | change in food intake over four days ([2]; listed as Seq 29): more sustained reduction in food intake; also recorded: particularly evident | blood glucose lowering effect over four days ([3]; listed as Seq 29): greater reduction in blood glucose | blood glucose lowering effect over four days ([3]; listed as Seq29): particularly effective

Compound: HXQGTFTSDYSKYLDARAAK( ? -γE-C18—OH)DFVQWL2αMDT—NH2 (H[Aib]QGTFTSDYSKYLDARAAK([AEEA-AEEA-γGlu-C18‑OH])DFVQWL[Met(O2)][αMeD]T-NH2) [SEQ ID NO: 33]
change in body weight over four days ([1]; listed as Seq 33): more pronounced and sustained change in body weight; also recorded: particularly pronounced | change in food intake over four days ([2]; listed as Seq 33): more sustained reduction in food intake; also recorded: particularly evident | blood glucose lowering effect over four days ([3]; listed as Seq 33): greater reduction in blood glucose; also recorded: particularly effective | PK over three days [4]: more prolonged PK

Compound: HXQGTFTSDpAF( ? -γE-C18—OH)SKYLDARAAQDFVQWL2DT—NH2 (H[Aib]QGTFTSD[Phe(4-CH2NH2)]([AEEA-AEEA-γGlu-C18‑OH])SKYLDARAAQDFVQWL[Met(O2)]DT-NH2) [SEQ ID NO: 28]
change in body weight over four days [1]: more pronounced and sustained change in body weight | change in food intake over four days [2]: more sustained reduction in food intake | blood glucose lowering effect over four days [3]: greater reduction in blood glucose

Compound: HsQGTFTSDYSKYLDARAAK( ? -γE-C16—OH)DFVQWLLDT—NH2 (H[dS]QGTFTSDYSKYLDARAAK([AEEA-AEEA-γGlu-C16 diacid])DFVQWLLDT-NH2; N-terminus assumed; SMILES CC(C)C[C@H](NC(=O)[C@H](Cc1ccc(O)cc1)NC(=O)[C@H](CCCCN)NC(=O)[C@H](CO)NC(=O)[C@H](Cc1ccc(O)cc1)NC(=O)[C@H](CC(=O)O)NC(=O)[C@H](CO)NC(=O)[C@@H](NC(=O)[C@H](Cc1ccccc1)NC(=O)[C@@H](NC(=O)CNC(=O)[C@H](CCC(N)=O)NC(=O)[C@@H](CO)NC(=O)[C@@H](N)Cc1c[nH]cn1)[C@@H](C)O)[C@@H](C)O)C(=O)N[C@@H](CC(=O)O)C(=O)N[C@@H](C)C(=O)N[C@@H](CCCNC(=N)N)C(=O)N[C@@H](C)C(=O)N[C@@H](C)C(=O)N[C@@H](CCCCNC(=O)COCCOCCNC(=O)COCCOCCNC(=O)CC[C@H](NC(=O)CCCCCCCCCCCCCCC(=O)O)C(=O)O)C(=O)N[C@@H](CC(=O)O)C(=O)N[C@@H](Cc1ccccc1)C(=O)N[C@H](C(=O)N[C@@H](CCC(N)=O)C(=O)N[C@@H](Cc1c[nH]c2ccccc12)C(=O)N[C@@H](CC(C)C)C(=O)N[C@@H](CC(C)C)C(=O)N[C@@H](CC(=O)O)C(=O)N[C@H](C(N)=O)[C@@H](C)O)C(C)C) [SEQ ID NO: 2]
change in body weight over four days [1]: more pronounced and sustained change in body weight | change in food intake over four days [2]: more sustained reduction in food intake
